The record followed here is ChEMBL document CHEMBL3217571, “Structureactivity relationships of novel iodinated quinoline-2-carboxamides for targeting the translocator protein” (Medchemcomm, 2013).

Data set [1] can be described thus: Permeability of the compound using immobilized artificial membrane. The data set is classed as physicochemical.
The target of a further data set is serum albumin (Homo sapiens, UniProt P02768). The data set can be described thus: Binding affinity to human serum albumin by HPLC analysis. The data set is classed as ADME. Particulars: read-out: PB (converted).
Chain of serum albumin (P02768 whole entry): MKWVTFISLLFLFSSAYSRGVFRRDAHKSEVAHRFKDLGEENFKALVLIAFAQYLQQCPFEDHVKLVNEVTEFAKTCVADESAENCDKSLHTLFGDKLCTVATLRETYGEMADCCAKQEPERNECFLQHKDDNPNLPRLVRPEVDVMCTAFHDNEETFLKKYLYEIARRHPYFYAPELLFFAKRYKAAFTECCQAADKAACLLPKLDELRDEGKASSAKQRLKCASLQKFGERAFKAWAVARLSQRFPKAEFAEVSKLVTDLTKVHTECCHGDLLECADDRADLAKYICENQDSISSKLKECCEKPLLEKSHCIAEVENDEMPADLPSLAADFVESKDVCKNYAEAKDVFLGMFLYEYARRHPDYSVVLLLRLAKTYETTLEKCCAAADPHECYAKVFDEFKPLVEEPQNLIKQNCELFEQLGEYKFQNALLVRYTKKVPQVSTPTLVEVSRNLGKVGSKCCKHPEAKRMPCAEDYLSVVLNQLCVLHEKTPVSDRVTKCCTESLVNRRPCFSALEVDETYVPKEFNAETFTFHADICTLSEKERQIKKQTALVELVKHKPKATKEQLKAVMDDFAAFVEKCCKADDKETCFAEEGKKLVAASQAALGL
Another data set deals with Translocator protein (Rattus norvegicus, UniProt P16257). The data set can be described thus: Displacement of [3H]-PK11195 from TSPO in Sprague-Dawley rat brain homogenates after 90 mins by liquid scintillation counting analysis. The data set is classed as tissue-based. (In general: Displacement assays read how much labelled ligand stays bound in the presence of the test substance.)
Chain of Translocator protein (P16257 whole entry, looked up): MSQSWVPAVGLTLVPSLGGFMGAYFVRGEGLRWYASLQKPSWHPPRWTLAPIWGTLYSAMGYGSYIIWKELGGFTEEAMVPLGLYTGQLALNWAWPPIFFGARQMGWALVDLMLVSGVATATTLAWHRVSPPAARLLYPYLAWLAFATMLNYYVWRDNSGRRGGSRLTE

In general, Ki refers to the equilibrium dissociation constant of an inhibitor or competing ligand from its target. A low value points to a stronger hold on the target.

With `O=C(c1cc(-c2ccccc2)c2cc(F)ccc2n1)N1CCOCC1`, in data set [1], the Pm came out at 0.25. The fraction unbound on serum albumin is 0.122. Affinity at Translocator protein was put at a Ki of 5740 nM.

On to `CN(C)C(=O)c1nc2ccccc2c(-c2ccccc2)c1CI`, for which, in data set [1], the Pm is recorded as 0.55. The fraction unbound on serum albumin is 0.0498. This compound also had a Ki at Translocator protein of 1340 nM.

For `O=C(c1nc2ccccc2c(-c2ccccc2)c1CI)N1CCOCC1`, the Pm in data set [1] came out at 0.54. Further, the fraction unbound on serum albumin was 0.047. In addition, the Ki at Translocator protein was found to be 27.8 nM.

`O=C(c1cc(-c2ccccc2)c2cc(I)ccc2n1)N1CCOCC1` gave a Pm in data set [1] of 0.55. In addition, the fraction unbound at serum albumin was 0.0462. The compound also had an inhibition constant (Ki) at Translocator protein of 29900 nM.

In data set [1], `O=C(c1cc(-c2ccccc2)c2cccc(I)c2n1)N1CCOCC1` came in with a Pm of 0.41. For the same compound, the fraction unbound on serum albumin was 0.0181. Besides, at Translocator protein, the Ki came to 76100 nM.

In the case of `O=C(c1cc(-c2ccccc2I)c2ccccc2n1)N1CCOCC1`, in data set [1], the Pm is reported as 0.26. At serum albumin, the fraction unbound was 0.0876. Moreover, the inhibitory constant (Ki) at Translocator protein was determined as 929 nM.

Turning to `CCN(CC)C(=O)c1cc(-c2ccccc2I)c2ccccc2n1`, the Pm in data set [1] amounted to 0.67. The fraction unbound at serum albumin is 0.0591. On Translocator protein, this compound displayed an inhibitory constant (Ki) of 5.01 nM.

Regarding `CCC(C)N(C)C(=O)c1cc2ccccc2c(-c2ccccc2Cl)n1` (stereo not drawn) [PK-11195], the Pm in data set [1] is 0.64. Further, at serum albumin, the fraction unbound is 0.0772.
